Data from patent US9556139B2, “6-substituted phenoxychroman carboxylic acid derivatives” (Array BioPharma Inc., priority 2008, dated 2017).
Where two headings read alike, the source gives them in different places.

Target: human DP2 (Homo sapiens (Human), UniProt Q9Y5Y4)
Experiment: DP-2 Binding Inhibition Assay (3H-PGD2 binding to membranes of K562 cells expressing DP2)
Details: inhibition of 3H-PGD2 binding
How it was run: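 Radioligand filtration binding: ³H-PGD2 displacement from DP2-expressing K562 cell membranes, 60 min, room temperature, pH 7.4, under 0.1% BSA, 1% HSA or 4% HSA.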

[1] = read-out: EC50 (nM) 4% HSA, 4% HSA
[2] = read-out: EC50 (Nm) 1% HSA, 1% HSA

Chain of human DP2 (Q9Y5Y4 whole entry): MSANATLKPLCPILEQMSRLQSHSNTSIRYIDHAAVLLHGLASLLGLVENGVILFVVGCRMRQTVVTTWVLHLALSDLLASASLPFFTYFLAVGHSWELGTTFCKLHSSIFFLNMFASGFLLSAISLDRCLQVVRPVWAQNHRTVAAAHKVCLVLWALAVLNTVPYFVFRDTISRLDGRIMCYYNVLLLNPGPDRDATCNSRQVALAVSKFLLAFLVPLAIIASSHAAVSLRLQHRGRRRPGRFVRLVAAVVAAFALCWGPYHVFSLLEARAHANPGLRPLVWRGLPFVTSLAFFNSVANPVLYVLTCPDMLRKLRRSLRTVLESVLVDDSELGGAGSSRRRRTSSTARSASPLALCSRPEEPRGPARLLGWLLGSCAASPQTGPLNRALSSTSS

Row | SMILES | EC50 [1] [nM] | further results
1 | COc1ccc(CCNC(=O)c2ccc(Oc3cc4c(cc3Cl)C(C(=O)O)CCO4)cc2)cc1OC (stereo not drawn) [Example 141, Sodium 6-chloro-7-(4-(3,4-dimethoxyphenethylcarbamoyl)phenoxy)chroman-4-carboxylate] | 1000 | –
2 | C[C@H](CNC(=O)c1ccc(Oc2cc3c(cc2C#N)C(C(=O)O)CCO3)cc1)c1ccccc1 (stereo partly drawn) [Example 131, 6-Cyano-7-(4-((S)-2-phenylpropylcarbamoyl)phenoxy)chroman-4-carboxylic acid] | – | EC50 [2]: 59.3 nM
3 | C[C@@H](CNC(=O)c1ccc(Oc2cc3c(cc2C#N)C(C(=O)O)CCO3)cc1)c1ccccc1 (stereo partly drawn) [Example 130, 6-Cyano-7-(4-((R)-2-phenylpropylcarbamoyl)phenoxy)chroman-4-carboxylic acid] | – | EC50 [2]: 25.7 nM
4 | O=C(NCCc1ccc(Cl)cc1O)c1ccc(Oc2cc3c(cc2Cl)C(C(=O)O)CCO3)cc1 (stereo not drawn) [Example 233, 6-Chloro-7-(4-(4-chloro-2-hydroxyphenethylcarbamoyl)phenoxy)chroman-4-carboxylic acid] | – | EC50 (EC50 (nM) 0.1% BSA, 0.1% BSA): 11.1 nM
5 | Cc1ccc(-c2cccc(NC(=O)c3ccc(Oc4cc5c(cc4C#N)C(C(=O)O)CCO5)cc3)c2)cc1C (stereo not drawn) [Example 66, 6-Cyano-7-(4-(3′,4′-dimethylbiphenyl-3-ylcarbamoyl)phenoxy)chroman-4-carboxylic acid] | 68.2 | –
6 | N#Cc1cc2c(cc1Oc1ccc(C(=O)NCCc3cccc4ccccc34)cc1)OCCC2C(=O)O (stereo not drawn) [Example 55, 6-Cyano-7-(4-(2-(naphthalen-1-yl)ethylcarbamoyl)phenoxy)chroman-4-carboxylic acid] | – | EC50 [2]: 12.1 nM
7 | O=C(NCCc1cc(Cl)cc(Cl)c1)c1ccc(Oc2cc3c(cc2Cl)C(C(=O)O)CCO3)cc1 (stereo not drawn) [Example 148, Sodium 6-chloro-7-(4-(3,5-dichlorophenethylcarbamoyl)phenoxy)chroman-4-carboxylate] | 196 | –
8 | Cc1cc(C(=O)NCCc2ccc(Cl)cc2)ccc1Oc1cc2c(cc1C#N)C(C(=O)O)CCO2 (stereo not drawn) [Example 129, 7-(4-(4-Chlorophenethylcarbamoyl)-2-methylphenoxy)-6-cyanochroman-4-carboxylic acid] | – | EC50 [2]: 21.9 nM

Second part, led by results:

Row | EC50 [1] [nM] | SMILES | further results
9 | 301 | O=C(NCCc1ccc(C2CC2)cc1Cl)c1ccc(Oc2cc3c(cc2Cl)C(C(=O)O)CCO3)cc1 (stereo not drawn) [Example 30, Sodium 6-chloro-7-(4-(2-chloro-4-cyclopropylphenethylcarbamoyl)phenoxy)chroman-4-carboxylate] | –
10 | 191 | O=C(NCCc1ccc(F)cc1F)c1ccc(Oc2cc3c(cc2Cl)C(C(=O)O)CCO3)cc1 (stereo not drawn) [Example 81, Sodium 6-chloro-7-(4-(2,4-difluorophenethylcarbamoyl)phenoxy)chroman-4-carboxylate] | –
11 | 226 | O=C(NCCc1cccc(Cl)c1Cl)c1ccc(Oc2cc3c(cc2Cl)C(C(=O)O)CCO3)cc1 (stereo not drawn) [Example 139, Sodium 6-chloro-7-(4-(2,3-dichlorophenethylcarbamoyl)phenoxy)chroman-4-carboxylate] | –
12 | 269 | CCc1ccccc1CCNC(=O)c1ccc(Oc2cc3c(cc2Cl)C(C(=O)O)CCO3)cc1 (stereo not drawn) [Example 196, sodium 6-chloro-7-(4-(2-ethylphenethylcarbamoyl)phenoxy)chroman-4-carboxylate] | –
13 | 239 | O=C(NCCc1ccc(Cl)c(Cl)c1)c1ccc(Oc2cc3c(cc2Cl)C(C(=O)O)CCO3)cc1 (stereo not drawn) [Example 138, Sodium 6-chloro-7-(4-(3,4-dichlorophenethylcarbamoyl)phenoxy)chroman-4-carboxylate] | –
14 | 344 | O=C(NCCc1ccc(F)cc1)c1ccc(Oc2cc3c(cc2Cl)C(C(=O)O)CCO3)cc1 (stereo not drawn) [Example 85, Sodium 6-chloro-7-(4-(4-fluorophenethylcarbamoyl)phenoxy)chroman-4-carboxylate] | –
15 | 88 | O=C(NCCc1ccc(Cl)cc1Br)c1ccc(Oc2cc3c(cc2Cl)C(C(=O)O)CCO3)cc1 (stereo not drawn) [Example 32, Sodium 7-(4-(2-bromo-4-chlorophenethylcarbamoyl)phenoxy)-6-chlorochroman-4-carboxylate] | –
